Legend:
Type in all cases: in vivo
Details in all cases: 5 mg/kg oral gavage
MAGL = MAGL (Mus musculus (Mouse), UniProt O35678); assay: Mouse brain proteomes from inhibitor treated mice (oral gavage, sacrifice 4 h after administration, ABPP analysis)
Procedure, shortened: (§1)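 Values give % inhibition in brain after a 5 mg/kg oral gavage dose to wild-type C57Bl/6J mice, with vehicle e.g. PEG400/Ethanol/PBS (7/2/1). Animals were killed 4 h post-dose and brain proteome activity was read by ABPP.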

ABHD6 = ABHD6 (Mus musculus (Mouse), UniProt Q8R2Y0); assay: Mouse brain proteomes from inhibitor treated mice (oral gavage, sacrifice 4 h after administration, ABPP analysis), ABHD6
Procedure, shortened: as §1

FAAH = FAAH (Mus musculus (Mouse), UniProt O08914); assay: Mouse brain proteomes from inhibitor treated mice (oral gavage, sacrifice 4 h after administration, ABPP analysis), FAAH
Procedure, shortened: as §1

Chain of MAGL (O35678 whole entry): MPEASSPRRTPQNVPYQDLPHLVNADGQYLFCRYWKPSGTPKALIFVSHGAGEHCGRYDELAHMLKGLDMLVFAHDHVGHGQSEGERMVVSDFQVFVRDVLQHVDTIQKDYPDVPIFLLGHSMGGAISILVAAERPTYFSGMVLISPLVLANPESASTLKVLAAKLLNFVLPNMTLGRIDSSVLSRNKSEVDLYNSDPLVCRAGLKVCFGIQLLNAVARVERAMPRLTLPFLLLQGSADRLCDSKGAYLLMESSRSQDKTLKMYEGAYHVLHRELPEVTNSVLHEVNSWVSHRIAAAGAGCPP
Chain of FAAH (O08914 whole entry): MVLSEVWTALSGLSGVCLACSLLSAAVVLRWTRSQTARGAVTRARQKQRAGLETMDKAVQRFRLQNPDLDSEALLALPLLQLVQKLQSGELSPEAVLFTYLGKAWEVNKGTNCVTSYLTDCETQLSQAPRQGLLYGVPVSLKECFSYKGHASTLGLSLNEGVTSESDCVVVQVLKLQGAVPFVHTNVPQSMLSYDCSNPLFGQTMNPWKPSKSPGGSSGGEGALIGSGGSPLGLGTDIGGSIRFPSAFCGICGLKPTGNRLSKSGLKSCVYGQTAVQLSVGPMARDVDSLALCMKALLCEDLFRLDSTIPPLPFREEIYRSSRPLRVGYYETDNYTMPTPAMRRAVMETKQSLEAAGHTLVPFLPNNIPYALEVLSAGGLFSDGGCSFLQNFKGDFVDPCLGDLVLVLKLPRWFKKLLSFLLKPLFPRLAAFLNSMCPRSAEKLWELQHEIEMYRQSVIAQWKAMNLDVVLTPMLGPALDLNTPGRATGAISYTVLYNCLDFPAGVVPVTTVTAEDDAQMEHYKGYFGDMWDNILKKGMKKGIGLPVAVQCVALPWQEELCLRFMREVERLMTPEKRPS
Chain of ABHD6 (Q8R2Y0 whole entry): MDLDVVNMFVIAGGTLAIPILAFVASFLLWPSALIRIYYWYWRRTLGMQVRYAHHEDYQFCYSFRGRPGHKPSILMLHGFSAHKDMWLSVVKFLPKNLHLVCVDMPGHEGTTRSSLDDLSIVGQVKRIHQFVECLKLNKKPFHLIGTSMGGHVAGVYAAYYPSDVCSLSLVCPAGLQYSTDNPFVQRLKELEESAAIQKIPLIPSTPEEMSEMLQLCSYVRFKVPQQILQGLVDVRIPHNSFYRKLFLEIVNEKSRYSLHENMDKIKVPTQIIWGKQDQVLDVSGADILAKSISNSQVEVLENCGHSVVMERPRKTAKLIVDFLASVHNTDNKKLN

Compound	MAGL % Inh 5 mg/kg (mouse) (MAGL)	ABHD6 % Inh 5 mg/kg (mouse) (ABHD6)	FAAH % Inh 5 mg/kg (mouse) (FAAH)
O=C(O)C1CCN(c2cc(C(F)(F)F)ccc2CN2CCCC23CCN(C(=O)OC(C(F)(F)F)C(F)(F)F)CC3)CC1 [Example 121, 1-(2-((8-(((1,1,1,3,3,3-Hexafluoropropan-2-yl)oxy)carbonyl)-1,8-diazaspiro[4.5]decan-1-yl)methyl)-5-(trifluoromethyl)phenyl)piperidine-4-carboxylic acid]	### (### is ≥ 75%)	# (# is < 25%)	# (# is < 25%)
Cc1ccc(CN2CCCC23CCN(C(=O)OC(C(F)(F)F)C(F)(F)F)CC3)cc1Cl [Example 125, 1,1,1,3,3,3-Hexafluoropropan-2-yl 1-(3-chloro-4-methylbenzyl)-1,8-diazaspiro[4.5]decane-8-carboxylate]	### (### is ≥ 75%)	# (# is < 25%)	# (# is < 25%)
O=C(OC(C(F)(F)F)C(F)(F)F)N1CCC2(CCCN2Cc2ccc(N3CCCC3)c(Cl)c2)CC1 [Example 128, 1,1,1,3,3,3-Hexafluoropropan-2-yl 1-(3-chloro-4-(pyrrolidin-1-yl)benzyl)-1,8-diazaspiro[4.5]decane-8-carboxylate]	### (### is ≥ 75%)	# (# is < 25%)	# (# is < 25%)
O=C(OC(C(F)(F)F)C(F)(F)F)N1CCC2(CCCN2Cc2ccc(N3CCCC3)c(C(F)(F)F)c2)CC1 [Example 130, 1,1,1,3,3,3-Hexafluoropropan-2-yl 1-(4-(pyrrolidin-1-yl)-3-(trifluoromethyl)benzyl)-1,8-diazaspiro[4.5]decane-8-carboxylate]	### (### is ≥ 75%)	# (# is < 25%)	# (# is < 25%)
O=C(OC(C(F)(F)F)C(F)(F)F)N1CCC2(CCCN2Cc2ccc(Cl)c(N3CCCC3)c2)CC1 [Example 132, 1,1,1,3,3,3-Hexafluoropropan-2-yl 1-(4-chloro-3-(pyrrolidin-1-yl)benzyl)-1,8-diazaspiro[4.5]decane-8-carboxylate]	### (### is ≥ 75%)	# (# is < 25%)	# (# is < 25%)
CCc1cc(CN2CCC3(CCN(C(=O)OC(C(F)(F)F)C(F)(F)F)CC3)C2)ccc1F [Example 152, 1,1,1,3,3,3-Hexafluoropropan-2-yl 2-(3-ethyl-4-fluorobenzyl)-2,8-diazaspiro[4.5]decane-8-carboxylate]	### (### is ≥ 75%)	### (### is ≥ 75%)	# (# is < 25%)
CN1CCC(Oc2cc(CN3CCCC34CCN(C(=O)OC(C(F)(F)F)C(F)(F)F)CC4)cc(C(F)(F)F)c2)CC1 [Example 166, 1,1,1,3,3,3-Hexafluoropropan-2-yl 1-(3-(1-methylpiperidin-4-yloxy)-5-(trifluoromethyl)benzyl)-1,8-diazaspiro[4.5]decane-8-carboxylate]	# (# is < 25%)	# (# is < 25%)	# (# is < 25%)
O=C(OC(C(F)(F)F)C(F)(F)F)N1CCC2(CCCN2Cc2cc(Oc3nc4ccccc4s3)cc(C(F)(F)F)c2)CC1 [Example 172, 1,1,1,3,3,3-Hexafluoropropan-2-yl 1-(3-(benzo[d]thiazol-2-yloxy)-5-(trifluoromethyl)benzyl)-1,8-diazaspiro[4.5]decane-8-carboxylate]	# (# is < 25%)	# (# is < 25%)	# (# is < 25%)
Cc1cc(CN2CCCC23CCN(C(=O)OC(C(F)(F)F)C(F)(F)F)CC3)ccc1C(F)(F)F [Example 177, 1,1,1,3,3,3-Hexafluoropropan-2-yl 1-(3-methyl-4-(trifluoromethyl)benzyl)-1,8-diazaspiro[4.5]decane-8-carboxylate]	### (### is ≥ 75%)	# (# is < 25%)	# (# is < 25%)
CC1(C(=O)O)CN(c2cc(CN3CCCC34CCN(C(=O)OC(C(F)(F)F)C(F)(F)F)CC4)cc(C(F)(F)F)c2)CCO1 (stereo not drawn) [Example 195, 4-(3-((8-(((1,1,1,3,3,3-hexafluoropropan-2-yl)oxy)carbonyl)-1,8-diazaspiro[4.5]decan-1-yl)methyl)-5-(trifluoromethyl)phenyl)-2-methylmorpholine-2-carboxylic acid]	# (# is < 25%)	# (# is < 25%)	# (# is < 25%)
O=C(O)C1CN(c2cc(C(F)(F)F)ccc2CN2CCCC23CCN(C(=O)OC(C(F)(F)F)C(F)(F)F)CC3)CCO1 (stereo not drawn) [Example 197, 4-(2-((8-(((1,1,1,3,3,3-Hexafluoropropan-2-yl)oxy)carbonyl)-1,8-diazaspiro[4.5]decan-1-yl)methyl)-5-(trifluoromethyl)phenyl)morpholine-2-carboxylic acid]	# (# is < 25%)	# (# is < 25%)	# (# is < 25%)
O=C(O)[C@@H]1CCCN(c2cc(C(F)(F)F)ccc2CN2CCCC23CCN(C(=O)OC(C(F)(F)F)C(F)(F)F)CC3)C1 [Example 214]	### (### is ≥ 75%)	# (# is < 25%)	# (# is < 25%)
O=C(O)[C@H]1CCCN(c2cc(C(F)(F)F)ccc2CN2CCCC23CCN(C(=O)OC(C(F)(F)F)C(F)(F)F)CC3)C1 [Example 217]	### (### is ≥ 75%)	# (# is < 25%)	# (# is < 25%)
CC1(C(=O)O)CCCN(c2cc(CN3CCCC34CCN(C(=O)OC(C(F)(F)F)C(F)(F)F)CC4)cc(C(F)(F)F)c2)C1 (stereo not drawn) [Example 221]	### (### is ≥ 75%)	# (# is < 25%)	# (# is < 25%)
O=C(O)C1CCN(c2cc(F)cc(CN3CCCC34CCN(C(=O)OC(C(F)(F)F)C(F)(F)F)CC4)c2)CC1 [Example 236]	### (### is ≥ 75%)	# (# is < 25%)	# (# is < 25%)

The next lines start with the values.

MAGL % Inh 5 mg/kg (mouse) (MAGL)	ABHD6 % Inh 5 mg/kg (mouse) (ABHD6)	FAAH % Inh 5 mg/kg (mouse) (FAAH)	Compound
### (### is ≥ 75%)	# (# is < 25%)	# (# is < 25%)	Cc1cc(CN2CCCC23CCN(C(=O)OC(C(F)(F)F)C(F)(F)F)CC3)ccc1Cl [Example 124, 1,1,1,3,3,3-Hexafluoropropan-2-yl 1-(4-chloro-3-methylbenzyl)-1,8-diazaspiro[4.5]decane-8-carboxylate]
### (### is ≥ 75%)	# (# is < 25%)	# (# is < 25%)	O=C(OC(C(F)(F)F)C(F)(F)F)N1CCC2(CCCN2Cc2ccc(N3CCOCC3)c(C(F)(F)F)c2)CC1 [Example 129, 1,1,1,3,3,3-Hexafluoropropan-2-yl 1-(4-morpholino-3-(trifluoromethyl)benzyl)-1,8-diazaspiro[4.5]decane-8-carboxylate]
### (### is ≥ 75%)	# (# is < 25%)	# (# is < 25%)	O=C(OC(C(F)(F)F)C(F)(F)F)N1CCC2(CCCN2Cc2ccc(C(F)(F)F)c(N3CCOCC3)c2)CC1 [Example 133, 1,1,1,3,3,3-Hexafluoropropan-2-yl 1-(3-morpholino-4-(trifluoromethyl)benzyl)-1,8-diazaspiro[4.5]decane-8-carboxylate]
### (### is ≥ 75%)	# (# is < 25%)	# (# is < 25%)	O=C(OC(C(F)(F)F)C(F)(F)F)N1CCC2(CCCN2Cc2ccc(C(F)(F)F)c(N3CCCC3)c2)CC1 [Example 134, 1,1,1,3,3,3-Hexafluoropropan-2-yl 1-(3-(pyrrolidin-1-yl)-4-(trifluoromethyl)benzyl)-1,8-diazaspiro[4.5]decane-8-carboxylate]
### (### is ≥ 75%)	# (# is < 25%)	# (# is < 25%)	CCc1cc(CN2CCCC23CCN(C(=O)OC(C(F)(F)F)C(F)(F)F)CC3)ccc1F [Example 150, 1,1,1,3,3,3-Hexafluoropropan-2-yl 1-(3-ethyl-4-fluorobenzyl)-1,8-diazaspiro[4.5]decane-8-carboxylate]
### (### is ≥ 75%)	# (# is < 25%)	# (# is < 25%)	O=C(OC(C(F)(F)F)C(F)(F)F)N1CCC2(CCCN2Cc2ccc(C(F)(F)F)c(Cl)c2)CC1 [Example 183, 1,1,1,3,3,3-Hexafluoropropan-2-yl 1-(3-chloro-4-(trifluoromethyl)benzyl)-1,8-diazaspiro[4.5]decane-8-carboxylate]
### (### is ≥ 75%)	# (# is < 25%)	# (# is < 25%)	O=C(OC(C(F)(F)F)C(F)(F)F)N1CCC2(CCCN2Cc2ccc(Cl)c(C(F)(F)F)c2)CC1 [Example 184, 1,1,1,3,3,3-Hexafluoropropan-2-yl 1-(4-chloro-3-(trifluoromethyl)benzyl)-1,8-diazaspiro[4.5]decane-8-carboxylate]
### (### is ≥ 75%)	# (# is < 25%)	# (# is < 25%)	O=C(O)[C@@H]1CCCCN1c1cc(CN2CCCC23CCN(C(=O)OC(C(F)(F)F)C(F)(F)F)CC3)cc(C(F)(F)F)c1 [Example 196, (S)-1-(3-((8-(((1,1,1,3,3,3-Hexafluoropropan-2-yl)oxy)carbonyl)-1,8-diazaspiro[4.5]decan-1-yl)methyl)-5-(trifluoromethyl)phenyl)piperidine-2-carboxylic acid]
### (### is ≥ 75%)	# (# is < 25%)	# (# is < 25%)	O=C(O)C1CCN(Cc2cc(C(F)(F)F)ccc2CN2CCCC23CCN(C(=O)OC(C(F)(F)F)C(F)(F)F)CC3)CC1 [Example 238]

Source: patent US10781211B2, “Spirocycle compounds and methods of making and using same” (Lundbeck La Jolla Research Center, Inc., priority 2016, dated 2020)
